Laboratory results as given in patent publication US20140140931A1, “ANTIOXIDANT, NEUROPROTECTIVE AND ANTINEOPLASTIC NANOPARTICLES COMPRISING A THERAPEUTIC AGENT ON AN AMPHIPHILIC SPACER OR AN AMPHIPHILIC POLYMER” (CEDARS-SINAI MEDICAL CENTER, priority 2011, published 2014).

What was measured:
P-glycoprotein (Pgp) = settings: cited from earlier work
[1] = 30 minutes after administration; cited from earlier work
[2] = cited from earlier work
[3] = test system: intracranial U87 MG tumor xenograft; assay: Survival study of mice with intracranial U87 MG GBM xenograft; type: in vivo, athymic nu/nu mice; settings: i.v. every three days for 4 weeks from day 7 (16 mg/kg/day CPT-TEG-ALA)
Method: All animal studies were performed according to Cedars-Sinai Medical Center Institutional Animal Care and Use Committee protocols. Female 6- to 8-week-old athymic nu/nu mice (Charles River Laboratories) were used for all experiments. […] For Intracranial tumor model, mice underwent intracranial stereotactic implantation of U87 MG cells. Mice were anesthetized using a ketamine and dexmedetomidine combination as a single intraperitoneal injection. 10^5 U87 MG cells suspended in 2 μl of PBS were implanted in the right frontal region of the brain using a Hamilton syringe. The animals received intraperitoneal injection of atipamezole to reverse the dexmedetomidine effect. A single subcutaneous injection of buprenorphine was administered for pain relief.
Two perpendicular diameters of the tumor are measured, and the volume is calculated according to the equation: V (mm^3)=L (mm)×W^2 (mm^2)/2, where L is the longest diameter and W is the diameter perpendicular to L. In the intracranial model, the animals (n=8) received intravenous (tail vein) injection of nanoprodrugs (16 mg/kg/day CPT-TEG-ALA) beginning 7 days after tumor implantation every three days for 4 weeks. […] As control, animals received injection of irinotecan, α-tocopherol nanosuspension, and saline
For mouse survival study, log-rank statistical analysis was performed. […]

Compound	Pgp substrate (P-glycoprotein (Pgp))	Lactone form hydrolyzed to an open ring [1]	Solubility in water [2]	Median survival time [3]
CCc1c2c(nc3ccc(O)cc13)-c1cc3c(c(=O)n1C2)COC(=O)[C@]3(O)CC [SN38]	substrates	–	–	–
CC[C@@]1(O)C(=O)OCc2c1cc1n(c2=O)Cc2cc3ccccc3nc2-1 [camptothecin, (S)-4-ethyl-4-hydroxy-1H-pyran-[3′,4′:6, 7]indolizino[1,2-b]quinoline-3,14(4H, 12H)-dione]	–	50%	essentially insoluble in water	–
CCc1c2c(nc3ccc(OC(=O)N4CCC(N5CCCCC5)CC4)cc13)-c1cc3c(c(=O)n1C2)COC(=O)[C@]3(O)CC [irinotecan]	substrates	–	–	41.0 days
